Molecules are shown by their SMILES.

Test [1] has as its system residue I846 in the S4 of TRPM8. Description: Thermodynamic mutant cycle analysis (TMCA) with patch-clamp recordings, residue I846 (I846V mutant). It counts as cell-based, mouse. The following applies: WT vs I846V. How it is done: (§1) Murine TRPM8 was used in this study. […] Point mutations were made by Fast Mutagenesis Kit V2 (SBS Genetech). Primers were used to generate point mutations.
(§2) HEK293T cells were cultured in Dulbecco’s modified eagle medium supplemented (DMEM) with 10% fetal bovine serum and 1% penicillin-streptomycin solution at 37°C with 5% CO2. When cells grow up to 60%–70%, plasmids were transfected with lipofectamine 2000 following the manufacturer’s protocol. Patch-clamp recordings were performed 18–24 h after transfection.
Patch-clamp recordings were performed using a HEKA EPC10 amplifier driven by PatchMaster software (HEKA). Patch pipettes were prepared from borosilicate glass and fire-polished to a resistance of 4–6MΩ. A solution (pH 7.25) containing 130 mM NaCl, 0.2 mM EDTA, and 3 mM HEPES was used in both bath and pipette for recording. For whole-cell recording, cells were detached by trypsin and plated on the microscope cover glass for 30–60 min before the experiment. Transfected cells could be identified by green fluorescence. Cells were clamped at +80 mV and −80 mV for 350 ms, respectively, during recording, and the average current in the last 40 ms was performed. […]
(§3) Data from whole-cell recordings were analyzed in Igor Pro (WaveMatrix). […]
The P o of mouse TRPM8 activated by (−)-menthol was measured through single-channel recordings as in our previous study ([Xu et al., 2020]), and P o of TRPM8 mutant channels activated by (−)-menthol was estimated from noise analysis through whole-cell recordings. The mean current amplitude (I), the squared deviations in current amplitude from the mean value (σ ^2), and the single-channel current (i) were measured experimentally from a membrane patch of ion channels. Then, the number of ion channels clamped into that patch (N) is determined as N=I^2/i⋅I−σ^2.
For TRPM8 activation by other stereoisomers, P o max was measured from the concentration–response curve and L was determined from P o max by L = P o max/(1 − P o max). Both K d and L contribute to the measured apparent affinity by the equation EC50 = K d/(1 + L). […]
A general note: In patch-clamp work, channel activity is measured electrically.

In the next test the target is T1, mouse TRPM8 (Mus musculus, UniProt Q8R4D5).
T1 construct: expressed in transfected cells; host or cells: HEK293T
T1 sequence (Q8R4D5 whole entry): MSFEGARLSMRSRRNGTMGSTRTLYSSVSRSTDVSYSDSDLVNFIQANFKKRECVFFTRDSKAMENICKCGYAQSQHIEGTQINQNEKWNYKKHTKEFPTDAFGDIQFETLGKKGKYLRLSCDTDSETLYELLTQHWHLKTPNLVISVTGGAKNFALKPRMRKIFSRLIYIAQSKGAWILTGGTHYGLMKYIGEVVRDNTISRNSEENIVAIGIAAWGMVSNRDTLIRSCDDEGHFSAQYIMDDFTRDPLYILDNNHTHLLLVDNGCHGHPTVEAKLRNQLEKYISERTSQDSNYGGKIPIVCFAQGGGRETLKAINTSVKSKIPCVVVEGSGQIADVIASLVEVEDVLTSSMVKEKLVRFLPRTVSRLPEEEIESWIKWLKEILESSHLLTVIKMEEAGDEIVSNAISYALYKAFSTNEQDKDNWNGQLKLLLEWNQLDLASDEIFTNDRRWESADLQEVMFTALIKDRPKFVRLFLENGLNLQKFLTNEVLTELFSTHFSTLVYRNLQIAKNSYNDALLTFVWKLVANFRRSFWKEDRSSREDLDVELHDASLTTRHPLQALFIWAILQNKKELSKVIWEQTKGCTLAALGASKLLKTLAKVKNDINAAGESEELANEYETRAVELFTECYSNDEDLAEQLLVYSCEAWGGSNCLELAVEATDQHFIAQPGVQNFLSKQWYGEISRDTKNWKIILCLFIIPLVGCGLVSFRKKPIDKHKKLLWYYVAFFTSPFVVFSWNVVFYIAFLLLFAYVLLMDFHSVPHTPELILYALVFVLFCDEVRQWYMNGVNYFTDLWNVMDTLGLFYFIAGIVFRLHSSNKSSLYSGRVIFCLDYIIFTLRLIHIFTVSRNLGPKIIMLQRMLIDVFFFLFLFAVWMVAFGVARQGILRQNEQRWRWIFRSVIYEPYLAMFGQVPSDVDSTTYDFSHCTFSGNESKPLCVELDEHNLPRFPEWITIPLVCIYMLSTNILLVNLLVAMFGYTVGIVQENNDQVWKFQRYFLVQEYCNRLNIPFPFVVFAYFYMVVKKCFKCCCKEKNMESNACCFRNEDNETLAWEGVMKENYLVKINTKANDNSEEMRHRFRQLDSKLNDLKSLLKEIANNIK
Description: Whole-cell patch-clamp recordings of wild-type TRPM8 in transfected HEK293T cells. It counts as cell-based. To be noted: for maximum current activated: −80 mV, normalized to 2 mM (−)-menthol; for EC50: WT TRPM8, whole-cell, ~25°C. The procedure: as §1, §2
(§4) Patch-clamp recordings were performed using a HEKA EPC10 amplifier driven by PatchMaster software (HEKA). Patch pipettes were prepared from borosilicate glass and fire-polished to a resistance of 4–6MΩ. A solution (pH 7.25) containing 130 mM NaCl, 0.2 mM EDTA, and 3 mM HEPES was used in both bath and pipette for recording. For whole-cell recording, cells were detached by trypsin and plated on the microscope cover glass for 30–60 min before the experiment. Transfected cells could be identified by green fluorescence. Cells were clamped at +80 mV and −80 mV for 350 ms, respectively, during recording, and the average current in the last 40 ms was performed. All recordings were performed at room temperature (∼25°C).
To perfuse (−)-menthol and other isomers during the patch-clamp recording, a rapid solution changer with a gravity-driven perfusion system was used (RSC-200, Bio-Logic). Each solution was delivered through a separate tube, so there was no mixing of solutions. The pipette tip was placed right in front of the perfusion outlet during recording to ensure the solution exchange was complete.
Data from whole-cell recordings were analyzed in Igor Pro (WaveMatrix). EC50 values were derived from fitting a Hill equation to the concentration–response relationship. Changes in EC50 by point mutation may be caused by either perturbation of ligand binding or channel gating or both. To distinguish these possibilities, the dissociation constant (K d) for ligand binding is estimated assuming the following gating scheme: C0↔KdC1↔LO, where L is the equilibrium constant for the final closed-to-open transition.
For TRPM8 activation by other stereoisomers, P o max was measured from the concentration–response curve and L was determined from P o max by L = P o max/(1 − P o max). Both K d and L contribute to the measured apparent affinity by the equation EC50 = K d/(1 + L).

Details of test [2]: method as in Hopp, 1993; Barel et al., 2009. The following applies: human taste dilution studies; ref Hopp, 1993; Barel et al., 2009; cited from earlier work.
Test [3] deals with residue D802 in the S3 of TRPM8. Description: Thermodynamic mutant cycle analysis (TMCA) with patch-clamp recordings, residue D802. Type of test: cell-based, mouse. To be noted: cycle (−)-menthol vs (+)-neomenthol, WT vs D802 mutant. The procedure: as §1, §2
Patch-clamp recordings were performed using a HEKA EPC10 amplifier driven by PatchMaster software (HEKA). […] Transfected cells could be identified by green fluorescence. […]
as §3
The P o of mouse TRPM8 activated by (−)-menthol was measured through single-channel recordings as in our previous study ([Xu et al., 2020]), and P o of TRPM8 mutant channels activated by (−)-menthol was estimated from noise analysis through whole-cell recordings. The mean current amplitude (I), the squared deviations in current amplitude from the mean value (σ ^2), and the single-channel current (i) were measured experimentally from a membrane patch of ion channels. Then, the number of ion channels clamped into that patch (N) is determined as N=I^2/i⋅I−σ^2. […]

The next test addresses T2, TRPM8 R842K mutant (Mus musculus, UniProt Q8R4D5, R842K).
T2 construct: expressed in transfected cells; host or cells: HEK293T
Description: Whole-cell patch-clamp recordings of the R842K mutant channel. Type of test: cell-based. The following applies: −80 mV. The procedure: as §1, §2, §4
To perfuse (−)-menthol and other isomers during the patch-clamp recording, a rapid solution changer with a gravity-driven perfusion system was used (RSC-200, Bio-Logic). […]

[4] abbreviates: +80 mV, compared to (−)-menthol.

T2 sequence (Q8R4D5 whole entry R842K): as the sequence (Q8R4D5 whole entry) above, with R842K counted along it

As for `CC(C)[C@H]1CC[C@@H](C)C[C@H]1O` [(+)-neoisomenthol], the coupling energy in test [1] (+80 mV, cycle (−)-menthol vs (+)-neoisomenthol) is reported as 3.25 ± 0.11 kT; in test [1] (−80 mV, cycle (−)-menthol vs (+)-neoisomenthol), 3.10 ± 0.18 kT. Further, at mouse TRPM8 (setting [4]), the “Kd (binding affinity from gating scheme)” value was “slightly decreased affinity”. Also, the maximum current activated result at mouse TRPM8 is “much reduced”. Also, the cooling thresholds result in test [2] is recorded as “much higher cooling thresholds”.
In the case of `CC(C)[C@@H]1CC[C@@H](C)C[C@@H]1O` [(+)-neomenthol], the coupling energy entry in test [1] (±80 mV, cycle (−)-menthol vs (+)-neomenthol, threshold 1.5 kT) was “large coupling energy values”; in test [3] (+80 mV) it was 1.81 ± 0.10 kT; in test [3] (−80 mV), 2.12 ± 0.06 kT. The “Kd (binding affinity from gating scheme)” value on mouse TRPM8 (setting [4]) is “slightly decreased affinity”. Further, the “L value (gating equilibrium constant)” value on mouse TRPM8 (setting [4]) is reported as “significantly reduced”. The same molecule showed an EC50 on mouse TRPM8 (+80 mV) of 206 ± 11.4 µM. The maximum current activated entry on mouse TRPM8 is recorded as “much reduced”. For the same molecule, at TRPM8 R842K mutant, the “activation of the R842K mutant” value was “cannot activate”.
`CC(C)[C@@H]1CC[C@@H](C)C[C@H]1O` [(−)-menthol]: the midpoint of the response at mouse TRPM8 (+80 mV), the EC50, lay at 62.6 ± 1.2 µM. Besides, the cooling thresholds result in test [2] is listed as “lowest cooling thresholds”.

In general, EC50 refers to the concentration giving half of the maximal effect.

These data come from publication PMC9253294, “Differential Activation of TRPM8 by the Stereoisomers of Menthol” (Frontiers in Pharmacology, 2022).
